“Also recorded” adds a separate entry of the source.

The subject of one assay is T cells expressing TPOR. In words: Stimulation of T cells expressing TPOR for 7 days, flow cytometry. Format: cell-based, human. The following applies: 0.1 μg/ml; for TPOR fraction after addition: enriched from 12.9%, FIG. 4 bottom panel. On the procedure: (§1) FIG. 3: T cells transduced to express (i) the thrombopoietin receptor (TPOR) or (ii) the GCF receptor with a deletion at aa 715 (GCSFRd715) are active and can drive T cell proliferation via the non-canonical JAK2 pathway. T cells expressing GCSFRd715, TPOR, or the truncated NGFR as a control were stimulated for 7 days with IL-2/IL-7/IL-15 (all at 5 ng/ml; denoted as CK; positive control condition), 0.1 μg/ml recombinant thrombopoietin (TPO), 0.1 μg/ml TPO agonist eltrombopag (EP), or 0.1 μg/ml GCSF. Cell number (top) or percent transgenic cells (bottom) were quantified using flow cytometry at 7 days.
(§2) FIG. 4: Exemplary flow cytometry plots showing that exposure of transgenic cytokine receptor transduced cells to the cognate cytokine (i.e. GCSFRd715 to GCSF; TPOR to TPO or EP) leads to enrichment of CAR expressing cells at 7 days. Addition of GCSF enriched the GCSRFd715 transgenic cell fraction from 15.6% to 64.9% (top panel). Addition of TPO enriched the TPOR fraction from 12.9% to 82% and addition of EP enriched the TPOR fraction from 12.9% to 55.9% (bottom panel).
(§3) Healthy donor T cells were transduced to express (i) the thrombopoietin receptor (TPOR) or (ii) the GCF receptor with a deletion at aa 715 (GCSFRd715). T cells expressing GCSFRd715, TPOR, or the truncated NGFR as a control were stimulated for 7 days with IL-2/IL-7/IL-15 (all at 5 ng/ml; denoted as CK; positive control condition), 0.1 μg/ml recombinant thrombopoietin (TPO), 0.1 μg/ml TPO agonist eltrombopag (EP), or 0.1 μg/ml GCSF. Cell number (FIG. 3, top) or percent transgenic cells (FIG. 3, bottom) were quantified using flow cytometry at 7 days.
(In general: In flow cytometry, cells or beads pass a laser one at a time.)

Assay [1] concerns the target GCF receptor with a deletion at aa 715 (GCSFRd715) (UniProt Q99062). As to the kind of experiment: cell-based or functional assay.
For another assay, the system named is Human T cells. As to the kind of experiment: T cell expansion after MV pseudotyped lentiviral transduction with mbIL15. In kind it is cell-based. From the text:
FIGS. 1A-1E: Transgenic IL15 and IL15Ra-IL15 expression to enhances T cell proliferation. Human T cells were transduced with a measles virus (MV) pseudotyped lentiviral vector redirected specifically against human CD4, encoding the NGFR reporter alone (“no IL15 construct”), soluble IL15 along with the reporter, or membrane-bound IL15 along with the reporter. Transduction is shown in FIG. 1B, where the transgene is detected using a co-expressed reporter molecule (tNGFR). Quantification of soluble IL15 is depicted in FIG. 1C. No additional cytokine or stimulation signals were provided to the cells. Tcells express transgenic IL15 and IL15Ra-IL15. […].
IL15 is a homeostatic cytokine that is required for the maintenance of CD8+ memory Tcells and NK cells, and promotes anti-tumor activity. IL15 signals through the IL15 receptor which is composed of a specific alpha chain (IL15Rα or IL15Ra) along with the shared IL2Rb and common gamma chain. Previous work has shown that a membrane bound version of IL15 (mbIL15) can be created by fusing IL15 directly to IL15Rα via a flexible linker that promotes IL15 signaling to the expressing cell (PMID: 27849617, US 2016/0158285 A1) (SEQ ID NO: 1,see Table 1). Herein, it was shown that incorporating mbIL15 in the lentiviral transfer genome increases CAR-T cell numbers 10-fold in vitro (FIGS. 1A-1D). […]

In assay [2] the target is thrombopoietin receptor (TPOR) (UniProt P40238). As to the kind of experiment: cell-based or functional assay.
Assay [3] deals with T cells transduced with reporter+TPO-R. As to the kind of experiment: Expansion of TPO-R transduced T cells in vitro. In kind it is cell-based, human. The following applies: transduced using the MV pseudotyped lentivector; FIG. 2D. From the text:
FIGS. 2A-2D: Transgenic TPO-R enables controllable T cell expansion. T cells were transduced with the reporter NGFR, or with reporter+the thrombopoietin receptor (TPOR) and stimulated with eltrombopag, a specific small molecule agonist of TPOR, in vitro. FIG. 2A: Cell number is shown to increase only in the presence of the TPOR agonist. […] FIG. 2C: All cells that express the reporter (tNGFR) also express the TPO receptor.
Recombinant erythropoietin (Epo) and G-CSF are commercially approved for the treatment for anemia of chronic kidney disease, and for chemotherapy-related neutropenia, respectively. Clinical development of a recombinant thrombopoietin (TPO) was superseded by two TPO receptor (TPO-R, also known as c-Mpl) peptidomimetic drugs that are now approved for the treatment of immune thrombocytopenic purpura (romiplostim, and eltrombopag). […] Results of the TPO-R experiments were recapitulated herein (FIGS. 2A-2D). T cells were transduced with the reporter NGFR, or with reporter+TPO-R and stimulated with eltrombopag, a specific small molecule agonist of TPOR, in vitro. […] In FIG. 2C, it is shown that there is a 1:1 expression of the reporter NGFR with the TPO receptor after 12 days of eltrombopag treatment.

In another assay the target is T1, TPO-R (Homo sapiens, UniProt P40238).
T1 construct: host or cells: CAR T cells transduced with TPO-R by other groups
T1 sequence (P40238 26-635): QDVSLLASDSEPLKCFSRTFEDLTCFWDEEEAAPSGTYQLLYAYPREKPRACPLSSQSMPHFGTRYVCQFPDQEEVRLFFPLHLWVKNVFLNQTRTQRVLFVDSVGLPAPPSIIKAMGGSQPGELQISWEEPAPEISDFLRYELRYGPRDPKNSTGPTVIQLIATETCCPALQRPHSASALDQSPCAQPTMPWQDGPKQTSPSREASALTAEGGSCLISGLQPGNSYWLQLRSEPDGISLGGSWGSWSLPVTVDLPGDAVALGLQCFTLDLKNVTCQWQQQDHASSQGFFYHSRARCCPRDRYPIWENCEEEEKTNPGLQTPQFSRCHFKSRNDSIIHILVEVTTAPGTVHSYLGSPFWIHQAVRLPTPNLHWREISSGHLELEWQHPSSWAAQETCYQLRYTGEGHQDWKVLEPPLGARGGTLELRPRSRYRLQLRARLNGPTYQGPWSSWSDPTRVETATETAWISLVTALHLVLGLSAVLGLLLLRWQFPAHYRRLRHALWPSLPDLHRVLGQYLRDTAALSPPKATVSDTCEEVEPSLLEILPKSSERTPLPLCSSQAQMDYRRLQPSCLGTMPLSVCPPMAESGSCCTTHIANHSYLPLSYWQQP
Particulars: CART cells transduced with TPO-R; cited from earlier work.

Assay [4] has as its system T cells expressing the truncated NGFR. In words: Stimulation of negative control T cells (truncated NGFR) for 7 days, flow cytometry. In kind it is cell-based, human. The following applies: 0.1 μg/ml, FIG. 3 top. On the procedure: as §1, §3
In the next assay the test system is STAT3 and STAT5. In words: Phosphorylation of STAT3 and STAT5 in TPOR expressing T cells, flow cytometry. The following applies: 0.1 μg/ml, 24 hours. In kind it is cell-based, human. On the procedure:
FIG. 5: TPOR stimulation leads to activation of STAT3 and STAT5. Healthy donor Tcells expressing TPOR or untransduced control T cells were stimulated for 24 hours with 5 ng/ml IL-2/IL-7/IL-15 (CK), 0.1 μg/ml TPO or 0.1 μg/ml Eltrombopag (EP). Following stimulation cells were fixed and the phosphorylation of STAT3 and STAT5 quantified using flow cytometry.
TPOR stimulation led to activation of STAT3 and STAT5 (FIG. 5). Healthy donor T cells expressing TPOR or untransduced control T cells were stimulated for 24 hours with 5 ng/ml IL-2/IL-7/IL-15 (CK), 0.1 μg/ml TPO, or 0.1 μg/ml Eltrombopag (EP). Following stimulation cells were fixed and the phosphorylation of STAT3 and STAT5 quantified using flow cytometry.

Assay [5] has as its target T2, interleukin-6 receptor (IL-6R) (Homo sapiens, UniProt P08887).
T2 construct: endogenous in cells; host or cells: subjects with cytokine release syndrome (in vivo)
T2 sequence (P08887 20-468): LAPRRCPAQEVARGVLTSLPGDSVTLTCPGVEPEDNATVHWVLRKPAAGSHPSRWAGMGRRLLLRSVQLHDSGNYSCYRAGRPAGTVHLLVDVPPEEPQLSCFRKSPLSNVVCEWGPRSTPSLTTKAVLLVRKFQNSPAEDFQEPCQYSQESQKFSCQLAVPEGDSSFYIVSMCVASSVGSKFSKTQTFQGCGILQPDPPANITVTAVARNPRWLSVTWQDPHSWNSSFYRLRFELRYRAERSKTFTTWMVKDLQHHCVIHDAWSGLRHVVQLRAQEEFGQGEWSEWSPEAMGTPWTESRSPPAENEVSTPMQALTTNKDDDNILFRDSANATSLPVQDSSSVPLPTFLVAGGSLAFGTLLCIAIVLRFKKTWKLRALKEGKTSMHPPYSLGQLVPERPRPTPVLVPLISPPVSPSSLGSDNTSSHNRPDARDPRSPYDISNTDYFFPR
Particulars: following CAR T-cell infusion; cited from earlier work.

Assay [6] deals with T cells expressing GCSFRd715. In words: Stimulation of T cells expressing GCSFRd715 for 7 days, flow cytometry. Format: cell-based, human. The method, then: as §1, §2, §3

GCF receptor with a deletion at aa 715 (GCSFRd715), sequence (Q99062 25-715 limits assumed, stated change not applied): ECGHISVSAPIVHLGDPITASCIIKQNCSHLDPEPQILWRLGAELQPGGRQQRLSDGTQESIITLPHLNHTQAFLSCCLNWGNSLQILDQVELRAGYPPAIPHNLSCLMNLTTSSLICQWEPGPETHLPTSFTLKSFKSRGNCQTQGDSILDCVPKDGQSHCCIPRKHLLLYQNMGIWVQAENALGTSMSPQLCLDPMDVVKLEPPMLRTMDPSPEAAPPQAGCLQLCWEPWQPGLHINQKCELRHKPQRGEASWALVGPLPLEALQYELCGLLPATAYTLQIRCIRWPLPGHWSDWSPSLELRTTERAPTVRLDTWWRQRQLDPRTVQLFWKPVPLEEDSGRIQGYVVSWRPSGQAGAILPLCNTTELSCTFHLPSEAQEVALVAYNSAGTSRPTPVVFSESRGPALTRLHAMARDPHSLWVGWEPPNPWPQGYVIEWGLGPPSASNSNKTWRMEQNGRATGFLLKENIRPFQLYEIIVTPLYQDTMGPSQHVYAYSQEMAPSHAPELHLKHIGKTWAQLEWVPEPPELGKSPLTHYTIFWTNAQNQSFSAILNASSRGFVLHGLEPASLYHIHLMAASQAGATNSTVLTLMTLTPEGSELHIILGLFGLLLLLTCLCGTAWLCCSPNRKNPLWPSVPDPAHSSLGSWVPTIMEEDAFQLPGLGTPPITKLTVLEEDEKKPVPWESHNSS

In the case of `CC1=NN(c2ccc(C)c(C)c2)C(=O)/C1=N\Nc1cccc(-c2cccc(C(=O)O)c2)c1O` [EP, eltrombopag, reference compound], the “TPOR fraction after addition” value in the assay with T cells expressing TPOR worked out at 55.9%.
For the molecule “Granulocyte Colony Stimulating Factor (G-CSF) (from UniProt P09919 31-204) (ligand)”, the transgenic cell fraction after 7 days (flow cytometry) in assay [1] came out at 64.9%.
In the case of “mbIL15: membrane bound version of IL15: IL15 fused directly to IL15Rα via a flexible linker (SEQ ID NO: 1)”, the “increase of CAR-T cell numbers” value with Human T cells (in vitro, mbIL15 in the lentiviral transfer genome) is reported as 10 fold. In addition, the “cell number (expansion)” value with Human T cells (no additional cytokine or stimulation signals, FIG. 1D) is listed as “superior expansion”.
In turn, “recombinant thrombopoietin (TPO) (from UniProt P40225 22-353) (ligand)” registered a transgenic cell fraction after 7 days (flow cytometry) in assay [2] of 82%.
For thrombopoietin [TPO], the “expansion of non-activated (resting) cells” value in assay [3] was “led to expansion; also recorded: expand selectively”. The “proliferation and anti-tumor functions” value in the assay with TPO-R was “superior proliferation and anti-tumor functions”. For the same molecule, the “TPOR fraction after addition” value with T cells expressing TPOR is 82%. For the same molecule, the “response to stimulation (cell number)” value in the assay on T cells expressing TPOR (TPOR cells, FIG. 3 top) is listed as “responded”; in assay [4], “did not respond”. Moreover, in the assay with STAT3 and STAT5, the “phosphorylation of STAT3 and STAT5” value was “leads to STAT5 and STAT3 phosphorylation; also recorded: lead to the expected STAT5 and STAT3 phosphorylation”.
In the case of “tocilizumab: humanized monoclonal antibody against the interleukin-6 receptor (IL-6R)”, the “reversal of CRS” value in assay [5] is given as “near-immediate reversal of CRS”.

B1: GCSF: Granulocyte Colony Stimulating Factor, cognate cytokine of GCSFRd715 (protein)
chain: TPLGPASSLPQSFLLKCLEQVRKIQGDGAALQEKLCATYKLCHPEELVLLGHSLGIPWAPLSSCPSQALQLAGCLSQLHSGLFLYQGLLQALEGISPELGPTLDTLQLDVADFATTIWQQMEELGMAPALQPTQGAMPAFASAFQRRAGGVLVASHLQSFLEVSYRVLRHLAQP
With B1, the “GCSFRd715 transgenic cell fraction after addition” value in [6] (0.1 μg/ml, enriched from 15.6%, FIG. 4 top panel) was found to be 64.9%. The “response to stimulation (cell number)” value is listed as “responded” in assay [6] (GCSFRd715 cells, 0.1 μg/ml, FIG. 3 top) and “did not respond” in assay [4]. The “relative enrichment of transgenic cells (percent transgenic cells)” value in assay [6] (GCSFRd715 cells, FIG. 3 bottom) is given as “Relative enrichment”.

(Values after patent US20250057883A1, “CONTROLLABLE STIMULATION OF GENETICALLY ENGINEERED LYMPHOCYTES FOR THE TREATMENT OF CANCER” (THE TRUSTEES OF THE UNIVERSITY OF PENNSYLVANIA, priority 2021, published 2025).)
